Entries after “also recorded” stand apart in the source; their conditions may differ. Like-named read-outs stand apart in the source and are kept apart here. Marks after values point to notes of the source that are not given here.
Assays:
[1] = tested on: MDR1 mRNA; assay: RT-PCR analysis of MDR1 mRNA expression; format: cell-based, human; details: KB-V1 and CEM/VLB100 cells, 72 hours; pervilleine A up to 34 μM (up to 45 μM), verapamil up to 44 μM
Protocol: RT-PCR analysis of MDR1 mRNA expression. […] Total RNA was isolated from cultured KB-3, KB-V1, CEM and CEM/VLB100 cells with TRIzol reagent (Life Technologies, Inc.) (33), and quantified by UV absorbance. The reverse transcription of RNA was performed by using the SUPERScript™ Preamplification System (Life Technologies, Inc.) in a final volume of 21 μl containing 5×First Strain Synthesis Buffer, 2.5 mM MgCl2, 0.5 mM each dNTP, […], 2 units of RNAse inhibitor, 200 units of Super-Scrip II reverse transcriptase, 0.5 μg oligo (dT)12-18, 2 μg of total RNA (3 μg for CEM and CEM/VLB100 cells), and DEPC-treated water. After incubation at 42° C. for 50 minutes, the room temperature reaction was terminated by heating to 70° C. for 15 minutes. To the newly synthesized cDNA (2 μl), a PCR mixture containing 1.4 mM MgCl2 (1.2 mM for CEM and CEM/VLB100 cells), 2.5 units of Taq polymerase, 0.2 μmol (0.6 μmol for CEM and CEM/VLB100 cells) of primers based on the MDR1 gene (35) and custom synthesized by Ana-Gen Technology, Inc. (Palo Alto, Calif.) (5′-[…]-3′; 5′-[…]-3′) (35). As an internal control, 0.125 μmol (0.1 μmol for CEM and CEM/VLB100 cells) of primers for GAPDH (5′-[…]-3′; 5′-[…]-3′) (36) were added (final volume to 50 μl). […]

[2] = tested on: KB-V1 cells; assay: [3H]Vinblastine accumulation with intact cells; format: cell-based, human; details: modulator 0–40 μM
Protocol: [^3H]Vinblastine accumulation with intact cells. Measurement of the accumulation of [^3H]vinblastine in cell monolayers was performed by the method of Fojo et al. (34) with some modifications. Studies were performed with 24-well plates. In preparing the cell monolayers, 2 ml of a cell suspension containing 2.5×10^5 cells per ml of incubation medium (DMEM with 10% calf serum) were added to each well. Control wells contained 2 ml of assay medium. […] Monolayers were washed three times with cold PBS, dried by inversion, and the cells were treated with trypsin. Cell suspensions were then transferred to vials containing 3 ml of scintillation solution (CytoScint™, ICN), mixed vigorously, and counted. The quantity of [^3H]vinblastine associated with incubations containing cells was corrected by subtracting the counts associated with incubations not containing cells.

[3] = tested on: BC1, breast cancer; assay: In vitro cytotoxicity, human tumor panel: BC1; format: cell-based; details: Homo sapiens, read-out: ED50 BCI
How it was run: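 Cytotoxic activity was measured against a panel of human cancer cell lines following an established protocol. The multidrug-resistant KB-V1 line was tested both with and without VLB.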

[4] = tested on: KB-V1 cells; assay: Reversal of MDR, cell survival assay: KB-V1 with or without vinblastine; format: cell-based, human; details: for IC50: Homo sapiens, KB-V1, 72 hours
Protocol: (§1) One part of a natural product drug discovery program involves monitoring the potential of plant extracts to reverse multiple drug resistance. […] To investigate the potential of plant extracts or compounds to reverse multidrug-resistance, KB-V1 cells are treated with different concentrations of plant extracts or compounds in the presence (1 μg/ml) or absence of vinblastine.
Cytotoxic potential. The cytotoxic potential of test substances with KB-3, KB-V1 and KB-8-5 cells was determined as described previously (24). Briefly, various concentrations of test compounds (dissolved in 10 μl of 10% DMSO) were transferred to 96-well plates, and 190 μl aliquots of cell suspensions (5×10^4 cells/ml) were added to each well. The plates then were incubated for 72 hours at 37° C. (100% humidity with a 5% CO2 atmosphere in air), and 100 μl of cold 20% aqueous trichloroacetic acid were added to the growth medium in each well to fix the cells. The cultures were incubated at 4° C. for 30 minutes, washed, air-dried, stained with sulforhodamine B solution, and washed with 1% acetic acid. […] In each case, a zero-day control was performed by adding an equivalent number of cells to several wells and incubating at 37° C. for 30 minutes, and processing as described above. Optical density values obtained with the zero-day control were subtracted, and cell survival, relative to control (solvent-treated) cultures, was calculated. The cytotoxic potential of the compounds with CEM and CEM/VLB100 cells was determined as described by Beck et al. (30). Cells were grown in 24-well plates at a density of 5–6×10^5 cells/ml. At 48 hours, the cell number was determined using a Coulter Counter, with a channelizer to distinguish cells from debris.

[5] = tested on: KB-3 cells; assay: Growth inhibitory potential (sulforhodamine B cell survival assay): KB-3; format: cell-based; details: Homo sapiens, KB3, 72 h, read-out: IC50 KB-3
Protocol: as §1
Cytotoxic potential. The cytotoxic potential of test substances with KB-3, KB-V1 and KB-8-5 cells was determined as described previously (24). Briefly, various concentrations of test compounds (dissolved in 10 μl of 10% DMSO) were transferred to 96-well plates, and 190 μl aliquots of cell suspensions (5×10^4 cells/ml) were added to each well. The plates then were incubated for 72 hours at 37° C. (100% humidity with a 5% CO2 atmosphere in air), and 100 μl of cold 20% aqueous trichloroacetic acid were added to the growth medium in each well to fix the cells. The cultures were incubated at 4° C. for 30 minutes, washed, air-dried, stained with sulforhodamine B solution, and washed with 1% acetic acid. Finally, 200 μl of 10 mM Tris base were added to each well and the optical densities were determined at 515 nm utilizing an ELISA plate reader. In each case, a zero-day control was performed by adding an equivalent number of cells to several wells and incubating at 37° C. for 30 minutes, and processing as described above. Optical density values obtained with the zero-day control were subtracted, and cell survival, relative to control (solvent-treated) cultures, was calculated. The cytotoxic potential of the compounds with CEM and CEM/VLB100 cells was determined as described by Beck et al. (30). Cells were grown in 24-well plates at a density of 5–6×10^5 cells/ml. At 48 hours, the cell number was determined using a Coulter Counter, with a channelizer to distinguish cells from debris.

[6] = vinblastine 1 μg/ml, listed as pervilleine A

COc1cc(C=CC(=O)O[C@H]2[C@@H](O)[C@@H]3C[C@H](OC(=O)c4cc(OC)c(OC)c(OC)c4)C[C@H]2N3C)cc(OC)c1OC [Compound 3, 3α-(3,4,5-trimethoxybenzoyloxy)-6β-(3,4,5-trimethoxycinnamoyloxy)-7β-hydroxytropane]
effect on MDR1 mRNA (transcription of MDR1) [1]: no significant effect; also recorded: did not significantly alter; also recorded: did not significantly affect | fold increase of [3H]vinblastine accumulation [2]: about 27 fold | IC50 [3]: > 20 µg/mL | IC50 ([4]; absence of vinblastine, read-out: IC50 KB-V1 (−)): > 34 µM | IC50 ([4]; presence of vinblastine (1 μg/ml), read-out: IC50 KB-V1 (+)): 0.36 µM | Ratio of IC50 values KB-3/[KB-V1 (+)] ([4]; vinblastine 1 μg/ml, listed as Pervilleine A): 66.6^d | Ratio of IC50 values KB-3/[KB-V1 (+)] [4, 6]: 66.6 | Ratio of IC50 values [KB-V1 (−)]/[KB-V1 (+)] [4, 6]: > 95 | IC50 [5]: 24 µM
